Experimental data published in patent US20240199618A1, “NOVEL N-ACYL-[3-SUBSTITUTED]-[8-SUBSTITUTED]-5,6-DIHYDRO-[1,2,4]TRIAZOLO[4,3-a]PYRAZINES AS SELECTIVE NK-3 RECEPTOR ANTAGONISTS, PHARMACEUTICAL COMPOSITION, METHODS FOR USE IN NK-3 RECEPTOR-MEDIATED DISORDERS” (Ogeda SA, priority 2013, published 2024).

Experiments:
[1] = test system: circulating levels of luteinizing hormone (LH); test: Castrated male rat model, circulating luteinizing hormone (LH); type: in vivo; conditions: single oral dose less than or equal to 30 mg/kg, p<0.05
Description: Castrated Male Rat Model to Assess the Effect of Compound of Invention on Circulating Levels of Luteinizing Hormone (LH)
The effect of compounds of the invention to inhibit luteinizing hormone (LH) secretion is determined by the following biological studies.
In humans and rodents, castration is well-precedented to permit heightened, persistent GnRH signaling and consequent elevation of circulating LH. Thus, a castrated rat model is used to provide a broad index for measurement of LH inhibition as a marker of test compound inhibition of the GnRH signaling pathway.
Castrated adult male Sprague-Dawley (SD) rats (150-175 g,) were purchased from Janvier (St Berthevin, France). All animals were housed 2 per cage in a temperature-controlled room (22±2° C.) and 50±5% relative humidity with a 12 hour/12 hour light/dark cycles (lights off at […]). The animals were allowed 3 weeks of postoperative recovery prior to study. Animals were handled on a daily basis. Standard diet and tap water were provided ad libitum. Animal cage litters were changed once a week. On the study day, animals were acclimated to the procedure room for a period of one hour prior to the initiation of the experiment.
Compounds of the invention were formulated in 0.5% methyl cellulose.
After basal sampling (TO) a single dose of compounds of the invention or vehicle was administrated orally to rats. Blood samples were then collected at several time points post dosing (45, 90, 150, 300 and 420 minutes). Blood samples were obtained via tail vein bleed, drawn into EDTA-containing tubes and centrifuged immediately. Plasma samples were collected and stored in a −80° C. freezer until assayed. Serum LH levels were determined using radioimmunoassay kit from RIAZEN—Rat L H, Zentech (Liege, Belgium). Baseline was defined as the initial basal blood sample.

[2] = test system: body temperature (pyrogenic response to feeding); test: Thermoregulation in OVX ewes; type: in vivo, ewe; conditions: 1 mg/kg intravenous bolus
Excerpt: In Vivo Assay in OVX Ewes-Activity in Thermoregulation Experimental Methods: Evaluation of Thermoregulation in OVX Ewe […] After 4 months recovery, animals were acclimatised to housing in single pens for a period of 7 days with ad libitum access to water and […] lucerne hay. One day prior to experimentation, the animals received a jugular vein cannula ([…], Tuta Laboratories, Lane Cove, Australia). The cannulo were kept patent with heparinised saline. On the day of the experiment, compound n^o 5 of the present invention was formulated in physiological saline with 9% 2-hydroxypropyl-β-cyclodextrin at a concentration of 2 mg/mL. […] Animals were fed at 12 h00. Rectal temperatures were monitored with a probe at hourly intervals throughout the experiment, starting at 7 h40 and concluding at 15 h40.

human NK-3 receptor = human NK-3 receptor (Homo sapiens (Human), UniProt P29371); test: Aequorin functional assay with human NK-3 receptor (antagonist testing vs NKA); type: cell-based; conditions: CHO cells, NKA at EC80 (3 nM); read-out: Functional assay: Aequorin assay with human NK-3 receptor hNK-3-AEQ (antagonist IC50)
Outline: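 CHO cells co-expressing human NK-3 receptor and apoaequorin were pre-incubated 3 min with compound, then challenged with NKA at EC80 (3 nM). Coelenterazine-dependent luminescence was integrated over 90 s, and antagonism was derived from concentration-dependent inhibition of the calcium response.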

plasma testosterone = test: Plasma testosterone in gonad intact male rats; type: in vivo, rat; conditions: 3 mg/kg oral, vs vehicle, FIG. 1
Description: Effect of Compounds of the Invention on Plasma Testosterone in Gonad Intact Male Rats
The study was designed to evaluate the effect of compounds of the invention on testosterone circulating levels following oral administration at 3 mg/kg on SD gonad intact male rats.
Briefly the experimental methods used for this study were as follows:
Two groups of non-fasted rats (male, Sprague-Dawley, 200 to 225 g; n=4 rats/group) with jugular vein cannulation, were dosed via a single oral administration of compounds of the invention at 3 mg/kg. The control group was dosed with the vehicle. Compounds of the invention were prepared in a dose formulation of pyrogen-free water with 0.5% methylcellulose. Blood samples were collected via the catheter implanted in the jugular vein at pre-determined intervals using EDTA-3K as anti-coagulant. Samples were chilled and rapidly processed by centrifugation to obtain corresponding plasma samples. Testosterone hormone levels were determined by RIA performed on plasma samples collected for all the groups at 5 minutes before administration (basal time), and at 45, 90, 150, 300, 480 minutes and 24 hours after dosing.

plasma protein = test: Determination of plasma protein binding (equilibrium dialysis, RED); type: in vitro ADME; conditions: 4 hours at 37° C.

Sequence of human NK-3 receptor (P29371 whole entry): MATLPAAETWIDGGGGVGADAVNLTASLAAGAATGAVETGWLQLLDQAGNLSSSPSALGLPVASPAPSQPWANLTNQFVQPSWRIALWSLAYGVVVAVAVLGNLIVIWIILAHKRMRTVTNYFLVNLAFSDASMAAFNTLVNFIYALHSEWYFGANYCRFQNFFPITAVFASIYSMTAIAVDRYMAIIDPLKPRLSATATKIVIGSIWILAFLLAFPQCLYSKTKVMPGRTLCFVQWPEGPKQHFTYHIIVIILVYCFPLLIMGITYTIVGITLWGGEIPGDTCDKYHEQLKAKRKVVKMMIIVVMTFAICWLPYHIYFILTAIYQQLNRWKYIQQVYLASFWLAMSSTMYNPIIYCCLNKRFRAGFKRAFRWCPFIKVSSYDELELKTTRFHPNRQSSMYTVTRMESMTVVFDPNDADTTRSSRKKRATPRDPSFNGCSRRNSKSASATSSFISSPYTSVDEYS

- IC50 (human NK-3 receptor): 18 nM
- Exposure (% rPPB), bound drug fraction to plasma protein (plasma protein): 22%
SMILES: Cc1nsc(-c2nnc3n2CCN(C(=O)c2ccc(F)cc2)[C@@H]3C)n1 [Compound 5, (R)-(4-fluorophenyl)(8-methyl-3-(3-methyl-1,2,4-thiadiazol-5-yl)-5,6-dihydro-[1,2,4]triazolo[4,3-a]pyrazin-7(8H)-yl)methanone]
- circulating LH levels [1]: significantly suppressed
- pyrogenic response to feeding [2]: not observed
- body temperature at the 12 h40 time point ([2]; after feeding at 12 h00, mean±SEM): 38.9±0.2 °C
- plasma testosterone level (plasma testosterone): significantly suppressed
